Test system: antibodies in sera of foals (goat anti-horse IgG detection)
Assay: Peptide ELISA: biotinylated overlapping VapA peptides screened with foal sera
Type: binding
Conditions: for number of positive sera recognizing (positive with) the peptide: fifty-one positive sera (foals with current R. equi disease), 1 in 250, positive = at least twice background OD at 450 nm
Description: Biotinylated peptides synthesized by Mimotopes, Victoria, Australia were used in all assays. The peptide bank used in the initial screening of sera was designed based upon the published sequence of VapA (Genbank accession No: D21236). A total of 50 overlapping peptides, each 11 amino acid residues in length (offset by 3 residues at a time) were synthesized beginning from the predicted signal peptide cleavage site between amino acids 31 and 32 up to and including the C terminus.
A total of seventy foal sera, most of these from animals aged between 4 to 12 weeks, were used to screen the peptides. Fifty-one sera were from foals with current R. equi disease (positive sera). Sixteen sera were from foals with no known history of R. equi infection and three sera were from foals that had recovered from R. equi infection 10 months previously (negative sera). Thirty-nine of the positive sera and all negative sera were obtained from studs in South Australia and New South Wales, Australia.
Biotin-SGSG(spacer) labelled peptide units were used as antigen targets. Neutravidin bound to the surface of a micro-titre plate was then used to bind the biotin labelled peptide to the plate. The procedure is as follows:
A solution of neutravidin was diluted 1 in 300 in sterile distilled water to a final concentration of 3.3 μg/ml, and 100 μl per well was added to a micro-titre plate and the plate was left overnight at 37° C. 200 μl 1% casein/1×PBS/0.05% Tween 20 was then added to each well and the plate was left for at least 1 hour at room temperature (or at 4° C. if left longer) before the solution in the plate was flicked out. The plate was then washed five times with 1×PBS/0.05% Tween 20 using an automatic plate washer and the plates were dried by slapping against absorbent paper. […]
The plate was then read using an ELISA plate reader at 450 nm.
Interpretation of data. […] The background OD was the mean of the lowest 50% of all OD values obtained with that particular serum and all OD readings that were twice this value were considered positive. […]

Row | Sequence | number of positive sera recognizing (positive with) the peptide | number of positive sera positive with only this peptide (fifty-one positive sera, fifty-peptide bank)
1 | NLQKDEPNGRA [Seq I.D. No. 47] | fifty-one | two
2 | YLNINFFDSSG [Seq I.D. No. 133] | Ten | 

Reference: patent US7169393B2, “Antigenic peptide fragments of VapA protein, and uses thereof” (Rural Industries Research & Development Coporation, priority 2000, dated 2007)
